Target: T1, Hsp90α N-terminal domain (Hsp90N) (Homo sapiens, UniProt P07900)
T1 construct: gene HSP90AA1
Test: competition binding by real-time in-cell […] NMR against spy ligand […] (Kd back-calculated)
Type: cell-based

Kd: 600 ± 100 pM
Compound: CCNC(=O)c1cc2c(-c3cc(OCCN(CC)CC)c(Cl)cc3Cl)nc(N)nc2s1 [compound 5]
